Measured values taken from patent US20150322038A1, “PYRAZINE DERIVATIVES AND THEIR USE IN THE TREATMENT OF NEUROLOGICAL DISORDERS” (NOVARTIS AG, priority 2009, published 2015).
Structures can show the parent of a compound that is named as a salt.

Key:
[1] = test system: cellular release of amyloid peptide 1-40; assay: Test 4: Inhibition of cellular release of amyloid peptide 1-40; format: cell-based; conditions: Cricetulus griseus, Chinese hamster ovary cells transfected with the gene for amyloid precursor protein, 24 hours with compound, amyloid peptide 1-40 in supernatant, read-out: Bace IC50
Method: Test 4: Inhibition of Cellular Release of Amyloid Peptide 1-40
Chinese hamster ovary cells are transfected with the gene for amyloid precursor protein. The cells are plated at a density of 8000 cells/well into 96-well microtiter plates and cultivated for 24 hours in DMEM cell culture medium containing 10% FCS. The test compound is added to the cells at various concentrations, and the cells are cultivated for 24 hours in the presence of the test compound. The supernatants are collected, and the concentration of amyloid peptide 1-40 is determined using state of the art immunoassay techniques, for example sandwich ELISA, homogenous time-resolved fluorescence (HTRF) immunoassay, or electro-chemiluminescence immunoassay. The potency of the compound is calculated from the percentage of inhibition of amyloid peptide release as a function of the test compound concentration.

human BACE-1 = human BACE-1 (Homo sapiens, UniProt P56817); assay: Test 1: Inhibition of human BACE-1; format: biochemical; conditions: recombinant BACE-1, pH 4.5, fluorescence-quenched APP-derived peptide substrate
human BACE-1, sequence (P56817 46-457 limits assumed): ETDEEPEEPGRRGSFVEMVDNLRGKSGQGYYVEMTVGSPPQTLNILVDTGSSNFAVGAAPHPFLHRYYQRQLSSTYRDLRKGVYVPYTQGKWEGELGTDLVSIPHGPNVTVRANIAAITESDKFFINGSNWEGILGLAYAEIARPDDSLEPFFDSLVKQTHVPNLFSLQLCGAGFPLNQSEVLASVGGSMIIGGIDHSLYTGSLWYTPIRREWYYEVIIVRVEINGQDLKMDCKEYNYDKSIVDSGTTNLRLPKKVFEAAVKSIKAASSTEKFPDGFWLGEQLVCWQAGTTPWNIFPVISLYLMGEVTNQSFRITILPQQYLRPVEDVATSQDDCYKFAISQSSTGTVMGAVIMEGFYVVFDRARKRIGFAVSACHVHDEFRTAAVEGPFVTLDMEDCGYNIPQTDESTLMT
Method: Test 1: Inhibition of Human BACE-1
IC50 values are calculated from percentage of inhibition of BACE-1 activity as a function of the test compound concentration.

IC50 [1] [nM] | IC50 (human BACE-1) [nM] | SMILES
57 | 52 | COC(=O)N1CC(N)=NC(c2cc(NC(=O)c3ccc(C#N)cn3)ccc2F)(C(F)F)C1 (stereo not shown) [Example 20, 5-Amino-3-{5-[(5-cyano-pyridine-2-carbonyl)-amino]-2-fluoro-phenyl}-3-difluoromethyl-3,6-dihydro-2H-pyrazine-1-carboxylic acid methyl ester]
74 | 28 | N#Cc1ccc(C(=O)Nc2ccc(F)c(C3(C(F)F)CNCC(N)=N3)c2)nc1 (stereo not shown) [Example 17, 5-Cyano-pyridine-2-carboxylic acid [3-(6-amino-2-difluoromethyl-2,3,4,5-tetrahydro-pyrazin-2-yl)-4-fluoro-phenyl]-amide]
6.7 | 30 | NC1=NC(c2cc(NC(=O)c3ccc(Br)cn3)ccc2F)(C(F)F)CNC1 (stereo not shown) [Example 16, 5-Bromo-pyridine-2-carboxylic acid [3-(6-amino-2-difluoromethyl-2,3,4,5-tetrahydro-pyrazin-2-yl)-4-fluoro-phenyl]-amide]

The next lines start with the compound.

SMILES | IC50 [1] [nM] | IC50 (human BACE-1) [nM]
COCCN1CC(C)(c2cc(NC(=O)c3ccc(Br)cn3)ccc2F)N=C(N)C1=O (stereo not shown) [Example 11, 5-Bromo-pyridine-2-carboxylic acid {3-[6-amino-4-(2-methoxy-ethyl)-2-methyl-5-oxo-2,3,4,5-tetrahydro-pyrazin-2-yl]-4-fluoro-phenyl}-amide hydrochloride] | 40 | 20
CN1CC(N)=NC(C)(c2cc(NC(=O)c3ccc(Br)cn3)ccc2F)C1=O (stereo not shown) [Example 1, 5-Bromo-pyridine-2-carboxylic acid [3-(6-amino-2,4-dimethyl-3-oxo-2,3,4,5-tetrahydro-pyrazin-2-yl)-4-fluoro-phenyl]-amide] | 3200 | 4100
CCN1CC(C)(c2cc(NC(=O)c3ncc(Cl)cc3Cl)ccc2F)N=C(N)C1=O (stereo not shown) [Example 8, 3,5-Dichloro-pyridine-2-carboxylic acid [3-(6-amino-4-ethyl-2-methyl-5-oxo-2,3,4,5-tetrahydro-pyrazin-2-yl)-4-fluoro-phenyl]-amide hydrochloride] | 74 | 21
CN1CC(N)=NC(C)(c2cc(NC(=O)c3ccc(Br)cn3)ccc2F)C1 (stereo not shown) [Example 2, 5-Bromo-pyridine-2-carboxylic acid [3-(6-amino-2,4-dimethyl-2,3,4,5-tetrahydro-pyrazin-2-yl)-4-fluoro-phenyl]-amide] | 120 | 180
COC(=O)N1CC(N)=NC(c2cc(NC(=O)c3ccc(Br)cn3)ccc2F)(C(F)F)C1 (stereo not shown) [Example 19, 5-Amino-3-{5-[(5-bromo-pyridine-2-carbonyl)-amino]-2-fluoro-phenyl}-3-difluoromethyl-3,6-dihydro-2H-pyrazine-1-carboxylic acid methyl ester] | 15 | 22
